Laboratory results from patent publication US4355026A, “4-Demethoxy,11-deoxy anthracycline derivatives” (priority 1980, dated 1982).
Converted amounts (≈) assume the structure as drawn. Where two headings read alike, the source gives them in different places.

Assays:
[1] = test system: Microccus lysodeikticus IFQ 3333; assay: MIC on nutrient agar medium; format: cell-based
Text: (§1) The compounds of formula I provided by the present invention are also characterized by their antimicrobial activity. Table 3 summarizes the minimum inhibitory concentrations (MIC) of representative compounds of the present invention against various microorganisms on a nutrient agar medium.

[2] = test system: Mycobacterium smegmatis ATCC 607; assay: MIC on nutrient agar medium; format: cell-based; details: Mycolicibacterium smegmatis, ATCC607
Text: as §1

[3] = test system: Shigella flexneri 46 JS 11811; assay: MIC on nutrient agar medium; format: cell-based; details: 46JS11811
Text: as §1

Sarcina lutea PCI 1001 = assay: MIC on nutrient agar medium; format: cell-based; details: Micrococcus luteus, PCI1001
Text: as §1

[4] = test system: Corynebacterium bovis 1810; assay: MIC on nutrient agar medium; format: cell-based
Text: as §1

[5] = test system: Staphylococcus aureus FDA 209; assay: MIC on nutrient agar medium; format: cell-based; details: FDA209
Text: as §1

[6] = test system: Bacillus subtilis PCI 219; assay: MIC on nutrient agar medium; format: cell-based; details: PCI219
Text: as §1

[7] = test system: Bacillus subtilis NRRB- 558; assay: MIC on nutrient agar medium; format: cell-based; details: NRRB558
Text: as §1

Escherichia coli NIHJ = assay: MIC on nutrient agar medium; format: cell-based
Text: as §1

[8] = test system: Klebsiella pneumonia PCI 602; assay: MIC on nutrient agar medium; format: cell-based; details: Klebsiella pneumoniae, PCI602
Text: as §1

[9] = test system: Pseudomonas aeruginosa A3; assay: MIC on nutrient agar medium; format: cell-based
Text: as §1

Microccus flavus FDA 16 = assay: MIC on nutrient agar medium; format: cell-based
Text: as §1

Bacillus megatherium APF = assay: MIC on nutrient agar medium; format: cell-based
Text: as §1

[10] = test system: Bacillus cereus ATCC 10702; assay: MIC on nutrient agar medium; format: cell-based; details: ATCC10702
Text: as §1

[11] = test system: Staphylococcus aureus smith; assay: MIC on nutrient agar medium; format: cell-based
Text: as §1

Salmonella typhi T - 63 = assay: MIC on nutrient agar medium; format: cell-based; details: Salmonella enterica
Text: as §1

Candida albicans 3147 = assay: MIC on nutrient agar medium; format: cell-based
Text: as §1

[12] = test system: L1210 leukemia cells, RNA synthesis; assay: Inhibition of RNA synthesis (14C-uridine incorporation) of L1210 cultivated leukemic cells; format: cell-based; details: Mus musculus, L1210, 1 h; for IC50: read-out: IC50 RNA synthesis; for IC90: read-out: IC90 RNA synthesis
Procedure: (§2) A. Inhibitory Effect on Growth, DNA Synthesis and RNA Synthesis of L1210 Cultivated Leukemic Cells of Mice
(§3) Separately, the above L1210 cultivated cells were suspended in a concentration of 5×10^5 cells/ml in an RPMI 1640 medium containing 10% calf serum and cultivated for 1 to 2 hours in a CO2 incubator at 37° C. Then, representative test compounds were added in various concentrations, and 15 minutes later, ^14 C-uridine (0.05 μCi/ml) or ^14 C-thymidine (0.05 μCi/ml) were added. The cells were incubated at 37° C. for 60 minutes. A 10% aqueous trichloroacetic acid solution was added to the incubation medium to stop the reaction and simultaneously precipitate acid-insoluble matter. The acid-insoluble matter was washed three times with a 5 to 10% aqueous solution of trichloroacetic acid and then dissolved in formic acid. The radioactivity of the acid-insoluble matter was measured. From the ratio of incorporated radiation to that of a control group, the concentrations which inhibited radiation by 10%, 50% and 90% respectively were measured.

L1210 leukemia cells [13] = assay: Inhibitory effect on growth of L1210 cultivated leukemic cells of mice; format: cell-based; details: Mus musculus
Procedure: as §2
For example, L1210 cells were inoculated in a concentration of 5×10^4 cells/ml in an RPMI 1640 culture medium (Roswell Park Memorial Institute 1640) containing 20% calf serum and, simultaneously, representative compounds of the present invention were added in a concentration of 0.1 and 0.5 μg/ml. The cells were cultivated in a CO2 generator at 37° C. The 50% growth inhibitory concentration with respect to a control group was then determined.

[14] = test system: L1210 leukemia cells, DNA synthesis; assay: Inhibition of DNA synthesis (14C-thymidine incorporation) of L1210 cultivated leukemic cells; format: cell-based; details: Mus musculus, L1210, 1 h; for IC50: read-out: IC50 DNA synthesis; for IC90: read-out: IC90 DNA synthesis
Procedure: as §2, §3

L1210 leukemia cells [15] = assay: Antitumor activity on CDFI mouse leukemia induced by mouse L1210 leukemia cells; format: in vivo, CDFI mice; set-up: key to Toxicity: *: Toxicity-; details: intraperitoneal, 10 consecutive days
Procedure: B. Antitumor Activity on CDFI Mouse Leukemia Induced by Mouse L1210 Leukemia cells
L1210 leukemia cells of mice were intraperitoneally transplanted in an amount of 1×10^5 cells/mouse in CDFI mice. Starting 24 hours after the transplantation, each of the test compounds was intraperitoneally administered to the mice for 10 consecutive days. the survival rate (T/C, %) was calculated in comparison with a control group (to which physiological saline was administered).

[16] = 14C-uridine, 60 minutes, 37° C.
[17] = 90% inhibition, 14C-uridine, 60 minutes, 37° C.
[18] = L1210, 24 h, 1 day later, RPMI 1640, 20% calf serum, 37° C., read-out: IC50 growth, 1 day later
[19] = L1210, 48 h, 2 days later, RPMI 1640, 20% calf serum, 37° C., read-out: IC50 growth, 2 days later
[20] = 14C-thymidine, 60 minutes, 37° C.
[21] = 90% inhibition, 14C-thymidine, 60 minutes, 37° C.
[22] = L1210, 24 h, read-out: IC50 growth, 1 day later
[23] = L1210, 48 h, read-out: IC50 growth, 2 days later

SMILES: C[C@@H]1O[C@@H](O[C@@H]2C[C@@](O)(C(=O)CO)Cc3cc4c(c(O)c32)C(=O)c2ccccc2C4=O)C[C@H](N)[C@@H]1O (single isomer, unassigned; isomer 4) [4-Demethoxy-11-deoxy-adriamycin (7R,9R,1'α)isomer, 4-Demethoxy-11-deoxyadriamycin]
- MIC [1]: > 100 mg/L
- MIC [2]: 100 mg/L (≈ 201 µM)
- MIC [3]: > 100 mg/L
- MIC (Sarcina lutea PCI 1001): > 100 mg/L
- MIC [4]: > 100 mg/L
- MIC [5]: > 100 mg/L
- MIC [6]: > 100 mg/L
- MIC [7]: > 100 mg/L
- MIC (Escherichia coli NIHJ): > 100 mg/L
- MIC [8]: > 100 mg/L
- MIC [9]: > 100 mg/L
- MIC (Microccus flavus FDA 16): > 100 mg/L
- MIC (Bacillus megatherium APF): > 100 mg/L
- MIC [10]: > 100 mg/L
- MIC [11]: > 100 mg/L
- MIC (Salmonella typhi T - 63): > 100 mg/L
- MIC (Candida albicans 3147): > 100 mg/L
- IC50 [12, 16]: > 10 mg/L
- IC90 [12, 17]: > 10 mg/L
- IC50 (L1210 leukemia cells [13]; [18]): 72.5 mg/L (≈ 146 µM)
- IC50 (L1210 leukemia cells [13]; [19]): 72.5 mg/L (≈ 146 µM)
- IC50 [14, 20]: > 10 mg/L
- IC90 [14, 21]: > 10 mg/L

SMILES: CC(=O)[C@@]1(O)Cc2cc3c(c(O)c2[C@H](O[C@@H]2C[C@H](N)[C@H](O)[C@H](C)O2)C1)C(=O)c1ccccc1C3=O (single isomer, unassigned; isomer 4) [4-Demethoxy-11-deoxy-daunomycin (7R,9R,1'β )isomer, 4-Demethoxy-11-deoxydaunomycin]
- IC50 [12, 16]: 5 mg/L (≈ 10.4 µM)
- IC90 [12, 17]: 13 mg/L (≈ 27 µM)
- IC50 (L1210 leukemia cells [13]; [18]): 2 mg/L (≈ 4.15 µM)
- IC50 (L1210 leukemia cells [13]; [19]): 1.25 mg/L (≈ 2.6 µM)
- IC50 [14, 20]: 4.5 mg/L (≈ 9.35 µM)
- IC90 [14, 21]: 15 mg/L (≈ 31.2 µM)

SMILES: CC(=O)[C@]1(O)Cc2cc3c(c(O)c2[C@@H](O[C@@H]2C[C@H](N)[C@H](O)[C@H](C)O2)C1)C(=O)c1ccccc1C3=O (single isomer, unassigned; isomer 4) [4-Demethoxy-11-deoxy-daunomycin (7S,9S,1'β)isomer, 4-Demethoxy-11-deoxydaunomycin]
- IC50 [12, 16]: 5.4 mg/L (≈ 11.2 µM)
- IC90 [12, 17]: 14 mg/L (≈ 29.1 µM)
- IC50 (L1210 leukemia cells [13]; [18]): 1.4 mg/L (≈ 2.91 µM)
- IC50 (L1210 leukemia cells [13]; [19]): 0.51 mg/L (≈ 1.06 µM)
- IC50 [14, 20]: 3.1 mg/L (≈ 6.44 µM)
- IC90 [14, 21]: 15 mg/L (≈ 31.2 µM)

SMILES: C[C@@H]1O[C@@H](O[C@H]2C[C@](O)(C(=O)CO)Cc3c(O)c4c(c(O)c32)C(=O)c2ccccc2C4=O)C[C@H](N)[C@@H]1O [4-Demethoxy-adriamycin, reference compound]
- IC50 [12, 16]: 1.2 mg/L (≈ 2.34 µM)
- IC90 [12, 17]: 6 mg/L (≈ 11.7 µM)
- IC50 (L1210 leukemia cells [13]; [18]): 0.02 mg/L (≈ 0.0389 µM)
- IC50 (L1210 leukemia cells [13]; [19]): 0.006 mg/L (≈ 0.0117 µM)
- IC50 [14, 20]: 1.6 mg/L (≈ 3.12 µM)
- IC90 [14, 21]: 10 mg/L (≈ 19.5 µM)

SMILES: CC(=O)[C@]1(O)Cc2c(O)c3c(c(O)c2[C@@H](O[C@H]2C[C@H](N)[C@H](O)[C@H](C)O2)C1)C(=O)c1ccccc1C3=O [4-Demethoxy-daunomycin, reference compound]
- IC50 [12, 16]: 0.14 mg/L (≈ 0.281 µM)
- IC90 [12, 17]: 1.4 mg/L (≈ 2.81 µM)
- IC50 (L1210 leukemia cells [13]; [18]): 0.01 mg/L (≈ 0.0201 µM)
- IC50 (L1210 leukemia cells [13]; [19]): 0.005 mg/L (≈ 0.0101 µM)
- IC50 [14, 20]: 0.08 mg/L (≈ 0.161 µM)
- IC90 [14, 21]: 1.2 mg/L (≈ 2.41 µM)

SMILES: COc1cccc2c1C(=O)c1c(cc3c(c1O)[C@@H](O[C@H]1C[C@H](N)[C@H](O)[C@H](C)O1)C[C@](O)(C(=O)CO)C3)C2=O [11-Deoxy-adriamycin, reference compound]
- IC50 (L1210 leukemia cells [13]; [18]): 0.005 mg/L (≈ 0.00948 µM)

SMILES: COc1cccc2c1C(=O)c1c(cc3c(c1O)[C@@H](O[C@H]1C[C@H](N)[C@H](O)[C@H](C)O1)C[C@](O)(C(C)=O)C3)C2=O [11-deoxy-daunomycin, reference compound]
- IC50 (L1210 leukemia cells [13]; [18]): 0.05 mg/L (≈ 0.0977 µM)

SMILES: COc1cccc2c1C(=O)c1c(O)c3c(c(O)c1C2=O)C[C@@](O)(C(=O)CO)C[C@@H]3O[C@H]1C[C@H](N)[C@H](O)[C@H](C)O1 [Adriamycin]
- IC50 [12]: 0.68 mg/L (≈ 1.25 µM)
- IC90 [12]: 6.5 mg/L (≈ 12 µM)
- Survival rate (T/C, %) (L1210 leukemia cells [15]; 0.15 mg/kg/day): 130%
- Survival rate (T/C, %) (L1210 leukemia cells [15]; 0.3 mg/kg/day): 147%
- Survival rate (T/C, %) (L1210 leukemia cells [15]; 0.6 mg/kg/day): 239%
- Survival rate (T/C, %) (L1210 leukemia cells [15]; 1.25 mg/kg/day): 272%
- Survival rate (T/C, %) (L1210 leukemia cells [15]; 2.5 mg/kg/day): 351%
- Survival rate (T/C, %) (L1210 leukemia cells [15]; 5 mg/kg/day): 189%
- Toxicity (L1210 leukemia cells [15]; 5 mg/kg/day): *
- IC50 (L1210 leukemia cells [13]; [22]): 0.05 mg/L (≈ 0.092 µM)
- IC50 (L1210 leukemia cells [13]; [23]): 0.03 mg/L (≈ 0.0552 µM)
- IC50 [14]: 1.65 mg/L (≈ 3.04 µM)
- IC90 [14]: 4.5 mg/L (≈ 8.28 µM)

SMILES: COc1cccc2c1C(=O)c1c(O)c3c(c(O)c1C2=O)C[C@@](O)(C(C)=O)C[C@@H]3O[C@H]1C[C@H](N)[C@H](O)[C@H](C)O1 [Daunomycin, reference compound]
- IC50 [12]: 0.18 mg/L (≈ 0.341 µM)
- IC90 [12]: 1.8 mg/L (≈ 3.41 µM)
- Survival rate (T/C, %) (L1210 leukemia cells [15]; 0.15 mg/kg/day): 118%
- Survival rate (T/C, %) (L1210 leukemia cells [15]; 0.3 mg/kg/day): 132%
- Survival rate (T/C, %) (L1210 leukemia cells [15]; 0.6 mg/kg/day): 145%
- Survival rate (T/C, %) (L1210 leukemia cells [15]; 1.25 mg/kg/day): 191%
- Survival rate (T/C, %) (L1210 leukemia cells [15]; 2.5 mg/kg/day): 138%
- Survival, in words (dead through toxicity) (L1210 leukemia cells [15]; 5 mg/kg/day): dead
- IC50 (L1210 leukemia cells [13]; [22]): 0.049 mg/L (≈ 0.0929 µM)
- IC50 (L1210 leukemia cells [13]; [23]): 0.036 mg/L (≈ 0.0682 µM)
- IC50 [14]: 0.3 mg/L (≈ 0.569 µM)
- IC90 [14]: 1.8 mg/L (≈ 3.41 µM)
